Laboratory results reported in patent US11246912B2, “Methods for treating and diagnosing metastatic liver cancer” (HADASIT MEDICAL RESEARCH SERVICES AND DEVELOPMENT LTD., priority 2017, dated 2022).
No end group written: not given here.

Columns and labels:
[1] = Adropin stability during incubation with mouse serum (LC-MS); type: in vitro ADME; conditions: 24 hours incubation with mouse serum; read-out: adropin level remaining
Experimental: FIG. 11 is a graph showing adropin dynamic stability during incubation with mouse serum as measured with liquid chromatography mass spectrometry (LC-MS).
The next step was to assess the stability of adropin during incubation with human or mouse serum.

[2] = system: MC-38 (colorectal cancer cell line); experiment: XTT cell-proliferation test, MC-38 cells; type: cell-based, murine
Experimental: (§1) All cell lines were maintained in DMEM medium supplemented with 10% FCS, 1% Penicillin/Streptomycin and 1% L-Glutamine in 10 cm^2 plates in 5% humidified CO2 at 37° C. Twice a week cells were passaged. Detaching was done for MC-38, CT26 and normal cells by incubation with 1 ml trypsin for 2-3 min and then seeded (usually 1:10) in 10 ml DMEM supplemented medium which stopped the enzymatic process of trypsin. EL4 cells are grown in suspension, thus not requiring this stage. For the experiments, after the trypsin detachment, 1 ml of cells was transferred into 13 ml medium and then the cells were centrifuged (1,400 rpm, 10 min, room temperature (RT)) and resuspended in 1 ml of fresh medium (for in vitro experiments) or sterile PBS×l (for mouse injections in vivo). Cells were counted in a hemocytometer under a light microscope (magnification×10) immediately after the addition of Trypan blue solution (1:1 ratio). Non-stained cells were considered viable. For in-vivo mouse injections, the cells were diluted in sterile PBS xl to a final concentration of 5×10^4 for MC-38 cells or 5×10^5 for EL-4 cells per 100 μl. For XTT in vitro experiments, the cells were seeded in a 96-well plate (100 μl per well) in the morning and in the afternoon (once the cells adhered) the medium was changed according to the treatment (DMEM, Adropin 25 ng/ml, Adropin 50 ng/ml or Adropin 100 ng/ml). On the following day, the XTT reaction solution was added to the wells according to the cell proliferation kit (XTT based; Biological Industries, Israel) and the plate was read 2, 3 and 4 hours following, using a Magellan for Infinite F50 (Tecan, Switzerland) microplate reader at 450 nm.
To test adropin's direct effects on MC-38 cells, XTT cell-proliferation tests were performed with adropin added to the medium at different concentrations (25-100 ng/ml).

[3] = system: MC38 cells; experiment: Direct cell count, MC38 cells; type: cell-based, murine; conditions: all tested seeding concentrations, up to 5×10^4 cells/well; compared with XTT
Experimental: as §1, with “For in-vivo mouse injections, the cells were diluted in sterile PBS xl to a final concentration of 5×10^4 for MC-38 cells or 5×10^5 for EL-4 cells per 100 μl. For XTT in vitro experiments, the cells were seeded in a 96-well plate (100 μl per well) in the morning and in the afternoon (once the cells adhered) the medium was changed according to the treatment (DMEM, Adropin 25 ng/ml, Adropin 50 ng/ml or Adropin 100 ng/ml).” left out, “nm. […]” for “nm.”

[4] = system: normal kidney cells; experiment: XTT assay on normal kidney cells; type: cell-based; conditions: kidney cells 5×10^4 cells/well
Experimental: (§2) FIGS. 10A-10C are vertical bar graphs showing the specificity of adropin inhibition on proliferating cancer cells. No detectable effect of adropin treatment was observed (using XTT assay) on normal (A) fibroblasts (1×10^4 HF cells/well), (B) kidney cells (5×10^4 cells/well), and (C) hepatocytes (5×10^4 HepRG cells/well) in-vitro.
(§3) All cell lines were maintained in DMEM medium supplemented with 10% FCS, 1% Penicillin/Streptomycin and 1% L-Glutamine in 10 cm^2 plates in 5% humidified CO2 at 37° C. Twice a week cells were passaged. Detaching was done for MC-38, CT26 and normal cells by incubation with 1 ml trypsin for 2-3 min and then seeded (usually 1:10) in 10 ml DMEM supplemented medium which stopped the enzymatic process of trypsin. EL4 cells are grown in suspension, thus not requiring this stage. […] Cells were counted in a hemocytometer under a light microscope (magnification×10) immediately after the addition of Trypan blue solution (1:1 ratio). […] On the following day, the XTT reaction solution was added to the wells according to the cell proliferation kit (XTT based; Biological Industries, Israel) and the plate was read 2, 3 and 4 hours following, using a Magellan for Infinite F50 (Tecan, Switzerland) microplate reader at 450 nm. […]

[5] = system: CT26 colorectal cancer cell line; experiment: XTT metabolic assay, CT26 cells; type: cell-based; conditions: CT26 seeded 5×10^3 cells/well
Experimental: FIGS. 9A-9D are vertical bar graphs showing the inhibitory effect of adropin on colorectal cancer cells.
as §1, with “For in-vivo mouse injections, the cells were diluted in sterile PBS xl to a final concentration of 5×10^4 for MC-38 cells or 5×10^5 for EL-4 cells per 100 μl. For XTT in vitro experiments, the cells were seeded in a 96-well plate (100 μl per well) in the morning and in the afternoon (once the cells adhered) the medium was changed according to the treatment (DMEM, Adropin 25 ng/ml, Adropin 50 ng/ml or Adropin 100 ng/ml).” left out

[6] = system: hepatic adropin protein; experiment: Hepatic adropin protein levels after single adropin injection; type: in vivo, mouse; conditions: C57BL/6 mice, single i.p. injection, different doses; lasting for two days
Experimental: FIGS. 12A-12B are vertical bar graphs showing the effect of single adropin polypeptide injection on endogenous hepatic adropin RNA (A) and (B) protein levels at the indicated doses and timing following i.p. injection (n represents number of mice per group).
Adropin levels were determined using the ELISA Kit (Cloud-Clone Corp., Texas, USA) for liver or serum mice samples according to the manufacturer's protocol. The results were analyzed using Magellan for Infinite F50 (Tecan, Switzerland).
(§4) C57BL/6 mice were given a single injection of adropin at different concentrations and sacrificed at varied times afterward. […] The lower concentration induced higher effect.

[7] = system: CT26 cells; experiment: Direct cell count, CT26 cells; type: cell-based
[8] = system: hepatic adropin RNA; experiment: Hepatic adropin RNA levels after adropin injection (qRT-PCR); type: in vivo, mouse
Experimental: FIG. 14 is a vertical bar graph showing the dose effects of a single adropin administration (i.p.) at the indicated doses (0 (naïve), 0.01 mg, 0.05 mg and 0.001 mg) on hepatic adropin RNA levels (measured by qRT-PCR). Each group comprised 4 mice.
FIG. 15 is a vertical bar graph showing the efficacy of different adropin routes of administration on hepatic adropin RNA in naïve mice (measured by qRT-PCR). Adropin was injected at a dose 0.01 mg. Naïve, non-injected; IP, intraperitoneal injection; SC, subcutaneous injection; IV, intravenous injection.
as §4
The inventors then pursued optimization of adropin administration. With this respect, different doses of adropin were administered to mice and hepatic adropin RNA levels were quantified (FIG. 14). […] Reduction in the dose of the administered adropin led to a reduction in the administered adropin effect.
Further, the inventors examined whether the administration route of the adropin affects the hepatic adropin mRNA levels (FIG. 15).

[9] = system: MC-38 colorectal liver metastases; experiment: MC-38 colorectal liver metastases model (intra-splenic cell injection) with adropin injection; type: in vivo, mouse
Experimental: Metastases model—In order to obtain metastases in the liver, a well-documented model was employed using the cancer cell lines derived from C57B1/6 mice—MC-38 or EL-4 cells. The cancer cells were injected intra-splenic into MDR2-Knockout (KO) and C57B1/6 mice at two and five months of age, and after 5 minutes the spleen was removed to prevent the development of a primary tumor in the spleen. Fourteen days later, the mice were euthanized, and their livers were removed in a similar manner to that described above.
Adropin injection—The adropin peptide (corresponding to amino acids at positions 34-76) was purchased from ChinaPeptides Co., Ltd. with a purity of >95%. The peptide was injected to mice according to two protocols. For the first protocol, termed ‘short adropin treatment’, adropin was injected at 450 nmole/kg in saline (80 μl injected), i.p., twice daily, for the five days surrounding the MC-38 CRC cell injection. For the second protocol, termed ‘prolonged adropin treatment’, 450 nmole/kg of adropin was injected i.p. (100 μl injected) once every three days from the morning of MC-38 cell injection throughout the experiment until the mice were sacrificed fourteen days later (a total of five injections).
Formalin-fixed paraffin-embedded tissue slides were stained with hematoxylin-eosin (H&E) staining and analyzed under a microscope using Cellsens Entry software (Olympus, Japan). The number and size of metastases larger than 4,000 μm^2 were recorded. The number of metastases was normalized relatively to the size of the liver sample analyzed.
A synthetic peptide of adropin (34-76 aa, purity: >95%) was then used to validate the findings regarding adropin's role in protecting the liver from metastases. The peptide, or saline as control, was injected (450 nmol/kg/i.p.) to mice during the week of cancer cell injection (2 days before, day of tumor cell injection and the following two days). A significant decrease of over 2.5-fold in the metastases size was observed, in the adropin-injected mice (FIG. 4B).
A further protocol was employed where adropin was injected every 3 days throughout the entire experiment period (14 days), starting from the morning of the cancer cell injection.
The mice were injected every two days with adropin (0.01 or 0.05 mg/i.p. injection) or saline starting from the morning of the MC-38 cell injection until being sacrificed two weeks later.

[10] = Adropin stability under storage conditions by LC-MS; type: physicochemical
Description: The inventors then examined the stability of adropin in vitro. For that, the inventors had set up a liquid chromatography mass spectrometry (LC-MS) assay and used it to examine the stability of adropin under different storage conditions (see Table 1). […] Contrary, approximately 50% degradation were observed when the dissolved peptide was stored at a room temperature for one month.

[11] = system: hepatocytes (HepRG cells); experiment: XTT assay on normal hepatocytes; type: cell-based; conditions: 5×10^4 HepRG cells/well
Experimental: as §2, §3

[12] = system: normal fibroblasts (HF cells); experiment: XTT assay on normal fibroblasts; type: cell-based; conditions: 1×10^4 HF cells/well
Experimental: as §2, §3

[13] = adropin 450 nmol/kg i.p., short treatment, vs saline
[14] = adropin 0.01 or 0.05 mg/i.p. injection every two days for two weeks, C57BL/6 mice
[15] = prolonged adropin treatment, 450 nmol/kg i.p. every 3 days for 14 days

remaining at 24 h [1]: 55% | effect of adropin treatment on normal cells (XTT) [4]: No detectable effects | Concentration obtained by LC-MS ([10]; 4° C. for 1 month): 84 ng/mL | Concentration obtained by LC-MS ([10]; Freeze/Thaw cycle × 3 (−20° C. to RT once a week)): 92 ng/mL | Concentration obtained by LC-MS ([10]; Room temperature (RT) for 1 month): 55 ng/mL | degradation of dissolved peptide ([10]; room temperature for one month): approximately 50% | Concentration obtained by LC-MS ([10]; −20° C. for 1 month): 95 ng/mL | stability dissolved in saline ([10]; −20° C. or −80° C., up to one month): highly stable | Concentration obtained by LC-MS ([10]; −80° C. and then 4° C. for 1 week): 99 ng/mL | Concentration obtained by LC-MS ([10]; −80° C. and then RT for 1 week): 94 ng/mL | Concentration obtained by LC-MS ([10]; −80° C. and then −20° C. for 1 week): 100 ng/mL | Concentration obtained by LC-MS ([10]; −80° C. for 1 month): 95 ng/mL | effect of adropin treatment on normal cells (XTT) [11]: No detectable effects | effect of adropin treatment on normal cells (XTT) [12]: No detectable effects
Sequence: CHSRSADVDSLSESSPNSSPGPCPEKAPPPQKPSHEGSYLLQP (cysteines drawn unpaired) [adropin]
inhibition of proliferation (XTT metabolic assay, FIG. 9A) ([2]; MC38 seeded 5×10^3 cells/well): significant inhibition | reduction in cell number (XTT) ([2]; adropin 100 ng/ml, seeded 1×10^3 cells/well): significant reduction in cell number | reduction in cell number (XTT) ([2]; adropin 100 ng/ml, seeded 5×10^3 cells/well): significant reduction in cell number | proliferation levels (XTT) ([2]; adropin 25-100 ng/ml in medium): decrease in the proliferation levels of the colorectal cancer cells in a dose dependent manner | reduction in cell number (XTT) ([2]; adropin 25 or 100 ng/ml, seeded 5×10^4 cells/well): No significant reduction | inhibitory effect on the number of cells (direct cell count) [3]: even higher inhibitory effect | inhibition of proliferation (XTT metabolic assay, FIG. 9C) [5]: significant inhibition | hepatic adropin protein levels [6]: large increase | inhibition by direct cell counts [7]: same trends of inhibition | hepatic adropin RNA levels ([8]; C57BL/6 mice, single i.p. injection, different doses, lasting for two days): large increase | hepatic adropin mRNA levels ([8]; intraperitoneal injection, 0.01 mg, naïve mice): greatest increase | hepatic adropin mRNA levels ([8]; intravenous injection, 0.01 mg, naïve mice): substantial increase | hepatic adropin mRNA levels ([8]; single i.p. dose of 0.001 mg): did not induce such an effect | hepatic adropin mRNA levels ([8]; single i.p. dose of 0.005 mg): some increase | hepatic adropin mRNA levels ([8]; single i.p. dose of 0.01 mg): substantially increase | hepatic adropin mRNA levels ([8]; subcutaneous injection, 0.01 mg, naïve mice): did not seem to increase | BrdU levels in the hepatic parenchyma [9, 13]: no differences | number of BrdU stained cells in the tumors [9, 13]: decrease in the number of BrdU stained cells | number of hepatic metastases [9, 14]: significantly improved effects | size of hepatic metastases [9, 14]: significantly improved effects | number of liver metastases [9, 15]: reduced upon adropin injections (marginally significant) | size of liver metastases [9, 15]: reduced upon adropin injections (marginally significant) | decrease in the metastases size ([9]; short adropin treatment, 450 nmol/kg i.p., 2 days before, day of and two days after MC-38 cell injection, vs saline): over 2.5 fold
